Data from PMC3608651, “A Broad Profile of Co-Dominant Epitopes Shapes the Peripheral Mycobacterium tuberculosis Specific CD8+ T-Cell Immune Response in South African Patients with Active Tuberculosis” (PLoS ONE, 2013).
Where two headings read alike, the source gives them in different places.

What was measured:
Type in all cases: binding
HLA-A*02:01 = HLA-A*02:01 (Homo sapiens, UniProt P04439, D140Y/D185E/D98H/E176V/E277Q/G131W/G231S/I119V/I121R/I166T/I218V/L300P/L318F/N151K/N90K/P208A/P217A/Q86G/Q94H/R138H/R169H/T345S); conditions: plate-bound monomer 0.5 µg/ml, duplicated experiments, positive binder >40%
HLA-C*07:01 = HLA-C*07:01 (Homo sapiens, UniProt P10321, K90N/S123Y); conditions: duplicated experiments, positive binder >40%
HLA-A*30:01 = HLA-A*30:01 (Homo sapiens, UniProt P04439, D140H/D185E/E176W/F33S/G80R/H175R/K168Q/R138E/R41S); conditions: duplicated experiments, positive binder >40%
HLA-A*68:01 = HLA-A*68:01 (Homo sapiens, UniProt P04439, A269V/D185E/E176V/E277Q/E87N/F33Y/G231S/I121M/I166T/I218V/L180W/L300P/L318F/N151K/P208A/P217A/Q86R/R169H/T345S); conditions: duplicated experiments, positive binder >40%
HLA-A*24:02 = HLA-A*24:02 (Homo sapiens, UniProt P04439, D101N/D140Y/D185E/E176V/E190D/F33S/G103R/G107R/I119L/I121M/I306V/K335N/L105A/L180Q/L300P/N151K/N90K/Q86E/Q94H/R106L/R138H/R89G/T104I/T345S/V100E/W191G/Y123F); conditions: duplicated experiments, positive binder >40%
HLA-B*07:02 = HLA-B*07:02 (Homo sapiens, UniProt P01889); conditions: percent relative the binding of positive control peptide […]; duplicated experiments; positive binder >40%
HLA-A*30:02 [1] = target: T1, HLA-A*30:02 (Homo sapiens, UniProt P04439, D101N/D140H/D185E/E176R/F33S/G80R/H175R/K168Q/Q94H/R138E/R41S/V100E)
HLA-A*30:02 [2] = target: T1, HLA-A*30:02; conditions: time points 0-8 h
HLA-B*58:01 = HLA-B*58:01 (Homo sapiens, UniProt P01889, A329T/C349S/D201E/D98Y/E176V/E187L/E204Q/E69T/G107R/I218V/I90N/K202T/L105A/L119I/N104I/N87E/Q89R/Q94S/R106L/R155S/R180L/R86G/S101N/S121R/S35A/S48A/T118I/V127L/V306I/V36M/Y140S/Y91M); conditions: duplicated experiments, positive binder >40%
HLA-A*30:02 [3] = target: T1, HLA-A*30:02; conditions: duplicated experiments, positive binder >40%
[4] = percent relative the binding of positive control peptide FLPSDFFPSV
[5] = percent relative the binding of positive control peptide KYFDEHYEY
[6] = percent relative the binding of positive control peptide KTKDIVNGL
[7] = percent relative the binding of positive control peptide KTGGPIYKR
[8] = percent relative the binding of positive control peptide RYLKDQQLL
[9] = peptide titrated 10−4 to 10−9 M
[10] = percent relative the binding of positive control peptide IAMESIVIW
[11] = percent relative the binding of positive control peptide KIQNFRVYY
[12] = percent relative the binding of positive control peptide […]

Row | Substance | Bind A*02:01 (HLA-A*02:01; [4]) | Bind C*07:01 (HLA-C*07:01; [5]) | Bind A*30:01 (HLA-A*30:01; [6]) | Bind A*68:01 (HLA-A*68:01; [7]) | Bind A*24:02 (HLA-A*24:02; [8]) | Bind B*07:02 (HLA-B*07:02) | Aff A*30:02 (ED50) (HLA-A*30:02 [1]; [9]) | O-rate A*30:02 (t1/2) (HLA-A*30:02 [2]) | Bind B*58:01 (HLA-B*58:01; [10]) | Bind A*30:02 (HLA-A*30:02 [3]; [11]) | Bind A*02:01 (HLA-A*02:01; [12]) | Bind C*07:01 (HLA-C*07:01; [12]) | Bind A*30:01 (HLA-A*30:01; [12]) | Bind A*68:01 (HLA-A*68:01; [12]) | Bind A*24:02 (HLA-A*24:02; [12]) | Aff A*30:02 (ED50) (HLA-A*30:02 [1]) | Bind B*58:01 (HLA-B*58:01; [12]) | Bind A*30:02 (HLA-A*30:02 [3]; [12])
1 | AAWGGSGSE [Rv3875_41–49] | 29% | 29% | 18% | 29% | 2% | 4% | 3e-07 M | 1.5 h | 9% | 167% | – | – | – | – | – | – | – | –
2 | KAADMW GPS | – | – | – | – | – | 18% | – | 0.8 h | – | – | 33% | 34% | 1% | 17% | 4% | 7E -09 M | 21% | 103%
3 | LQNLARTIS [Rv3875_69–77] | 27% | 3% | 11% | 8% | 26% | 10% | 1e-08 M | 2.1 h | 20% | 77% | – | – | – | – | – | – | – | –
4 | LVANNT RLW | – | – | – | – | – | 50% | – | 0.5 h | – | – | 21% | 26% | 2% | 38% | 88% | 5e-07 M | 50% | 68%
5 | MKGDLQSSL | – | – | – | – | – | 17% | – | 2.8 h | – | – | 16% | 63% | 14% | 19% | 22% | 2e-05 M | 0% | 90%
6 | AAAWGGSGS [Rv3875_40-48] | 8% | 29% | 29% | 15% | 0% | 4% | 5e-09 M | 1.1 h | 8% | 129% | – | – | – | – | – | – | – | –
7 | RAQDDYNGW | – | – | – | – | – | 0% | – | 1.2 h | – | – | 0% | 2% | 11% | 2% | 65% | 5e-07 M | 41% | 119%
8 | SAMILAAYH | – | – | – | – | – | 7% | – | 2.2 h | – | – | 9% | 15% | 0% | 69% | 0% | 4e-08 M | 0% | 111%
